Experimental data: paper PMC6359749, “Lignans from the Twigs of Litsea cubeba and Their Bioactivities” (Molecules, 2019)

Experiments:
[1] = system: human non-small-cell lung carcinoma (NCI-H1650) cell line; assay: Cytotoxicity assay (MTT), NCI-H1650; type: cell-based; conditions: for IC50: Homo sapiens, NCI-H1650, MTT, 24 h treatment
Method: (§1) The cytotoxic activity was determined against human colon cancer (HCT-116), human non-small-cell lung carcinoma (NCI-H1650), and human ovarian cancer (A2780) cell lines which were bought from the Cell Bank of Shanghai Institute of Cell Biology (Chinese Academy of Sciences) and originally obtained from the American Type Culture Collection (ATCC, Rockville, MD, USA). Cells were grown in RPMI 1640 (GIBCO, New York, NY, USA) supplemented with 10% fetal calf serum (Life Technologies, Carlsbad, CA, USA), penicillin G (100 U/mL), and streptomycin (100 μg/mL) at 37 °C in a 5% CO2 and seeded in 96-well plates (CLS3635, Corning®, Sigma, Santa Clara, CA, USA) at a cell density of 3000 per well over night, and then were treated with various diluted concentrations (each concentration was arranged triple) of compounds 1–19, which were prepared with DMSO (Sigma) to 100 μM stock solution and stored in −20 °C in advance. After 24 h of treatment, 10 μL of MTT (5 mg/mL in PBS) was then added directly to all wells and the plates were placed in the dark at 37 °C for 3 h incubation. Cell viability was measured by observing absorbance at 570 nm on a SpectraMax^190 microplate reader (Molecular Devices, Silicon Valley, CA, USA). IC50 values were calculated using Microsoft Excel software (version 2010, Redmond, WA, USA). Taxol was used as a positive control.

[2] = system: human ovarian cancer (A2780) cell line; assay: Cytotoxicity assay (MTT), A2780; type: cell-based; conditions: 24 h treatment
Method: as §1

[3] = system: LPS-induced NO production in RAW264.7 macrophages; assay: LPS-induced nitric oxide (NO) production in RAW264.7 macrophages (Griess); type: cell-based; conditions: Mus musculus, LPS 1 μg/mL, 18 h, read-out: IC50 against LPS-induced NO production
Method: The RAW 264.7 macrophages were cultured in The RPMI 1640 medium (Hyclone, Logan, UT, USA) containing 10% FBS. The compounds were dissolved in DMSO and further diluted in medium to produce different concentrations. The cell mixture and culture medium were dispensed into 96-well plates (2 × 10^5 cells/well) and maintained at 37 °C under 5% CO2. After preincubation for 24 h, serial dilutions of the test compounds were added into the cells, up to the maximum concentration 25 μM, then added with LPS to a concentration 1 μg/mL and continued to incubate for 18 h. The amount of NO was assessed by determined the nitrite concentration in the cultured RAW264.7 macrophage supernatants with Griess reagent. Aliqueots of supernatants (100 μL) were incubated, in sequence, with 50 μL 1% sulphanilamide and 50 μL 1% naphthylethylenediamine in 2.5% phosphoric acid solution. The sample absorbance was measured at 570 nm by a 2104 Envision Multilabel Plate Reader (PerkinElmer, Inc., Waltham, MA, USA). Dexamethasone was used as a positive control.

[4] = system: human colon cancer (HCT-116) cell line; assay: Cytotoxicity assay (MTT), HCT-116; type: cell-based; conditions: 24 h treatment
Method: as §1

[5] = molecular target: T1, human protein tyrosine phosphatase 1B (GST-hPTP1B) (Homo sapiens, UniProt P18031); assay: PTP1B inhibition assay (p-NPP dephosphorylation); type: biochemical; conditions: 3 mM p-NPP, HEPES pH 7.0, 30 °C, 10 min; read-out: IC50 against PTP1B
T1 construct: GST; made in house
T1 sequence (P18031 1-435): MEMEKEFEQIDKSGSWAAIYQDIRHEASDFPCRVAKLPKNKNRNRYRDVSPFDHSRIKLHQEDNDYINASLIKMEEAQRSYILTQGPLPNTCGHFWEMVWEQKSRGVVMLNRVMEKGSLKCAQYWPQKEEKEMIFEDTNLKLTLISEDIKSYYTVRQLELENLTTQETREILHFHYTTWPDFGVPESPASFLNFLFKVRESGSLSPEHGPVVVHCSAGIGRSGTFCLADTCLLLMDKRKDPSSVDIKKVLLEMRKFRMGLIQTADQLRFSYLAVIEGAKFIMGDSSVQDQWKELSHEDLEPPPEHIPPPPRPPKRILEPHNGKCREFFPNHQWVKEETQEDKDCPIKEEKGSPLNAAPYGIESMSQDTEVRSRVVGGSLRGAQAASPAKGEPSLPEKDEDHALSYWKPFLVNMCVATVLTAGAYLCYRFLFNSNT
Method: The dephosphorylation of para-nitrophenyl phosphate (p-NPP) was catalyzed to para-nitrophenol by PTP1B. Enzyme activity involving an end-point assay, which intensified the yellow color, was measured at a wavelength of 405 nm. All compounds were dissolved in 100% dimethyl sulfoxide (DMSO), and reactions, including controls, were performed at a final concentration of 10% DMSO. Selected compounds were first evaluated for their ability to inhibit the PTPase reaction at a 10 μM concentration at 30 °C for 10 min, in a reaction system with 3 mM p-NPP in HEPES assay buffer (pH 7.0). The reaction was initiated by addition of the enzyme and quenched by addition of 1 M NaOH. The amount of the produced p-nitrophenol was determined at 405 nm using a microplate spectrophotometer (uQuant, Bio-Tek, Winooski, VT, USA). IC50 values were evaluated using a sigmoidal dose-response (variable slope) curve-fitting program of GraphPad Prism 4.0 software (La Jolla, CA, USA). Oleanolic acid was used as a positive control.

Row | Compound | IC50 [1] [µM] | IC50 [2] [µM] | IC50 [3] [µM] | IC50 [4] [µM] | folds more active than 8, 9, 13, and 14 ([1]; NCI-H1650 cell line, versus 8, 9, 13 and 14) | IC50 [5] [µM]
1 | COc1cc(/C=C/C(=O)OC[C@@H](Cc2ccc(O)c(OC)c2)[C@@H](CO)Cc2ccc(O)c(OC)c2)ccc1O [Compound 6, (+)-(8S,8′S)-9-O-(E)-feruloyl-secoisolariciresinol] | > 20 | > 20 | 58.6 | > 20 |  | 
2 | COc1cc(C[C@H]2COC(=O)[C@@H]2Cc2ccc(O)c(OC)c2)ccc1O [Compound 18, matairesinol] | > 20 | 1.53 |  | 14 |  | 
3 | COc1cc(C=CC(=O)OCC2C(Cc3cc(OC)c(O)c(OC)c3)COC2c2cc(OC)c(O)c(OC)c2)ccc1O (single isomer, unassigned; (+)) [Compound 13, (+)-9′-O-(E)-feruloyl-5,5′-dimethoxylariciresinol] | 9.68 | > 20 |  | > 20 |  | 
4 | COc1cc(C=CC(=O)OCC2C(c3cc(OC)c(O)c(OC)c3)OCC2C(OC)c2cc(OC)c(O)c(OC)c2)ccc1O (stereo not shown) [Compound 9, 9′-O-(E)-Feruloyl-5,7,5′-trimethoxylariciresinol] | 13.2 | > 20 |  | > 20 |  | 
5 | COc1cc(/C=C/C(=O)OC[C@@H](Cc2cc(OC)c(O)c(OC)c2)[C@@H](CO)Cc2cc(OC)c(O)c(OC)c2)ccc1O [Compound 5, (+)-(8S,8′S)-9-O-(E)-feruloyl-5,5′-dimethoxysecoisolariciresinol] | > 20 | > 20 | 50.1 | > 20 |  | 
6 | COc1cc(CCNC(=O)[C@@H]2C(C(=O)NCCc3ccc(O)cc3)=Cc3cc(OC)c(O)c(OC)c3[C@H]2c2cc(OC)c(O)c(OC)c2)ccc1O [Compound 2, (−)-(7′R,8′S)-N^1-[2-(4-hydroxyphenyl)-ethyl]-N^2-[2-(4-hydroxy-3-methoxyphenyl)-ethyl]-4,4′-dihydroxy-3,5,3′,5′-tetramethoxy-2,7′-cyclolignan-7-en-9,9′-diamide] | > 20 | > 20 |  | > 20 |  | 
7 | COc1cc(C=CC(=O)OCC2C(Cc3ccc(O)c(OC)c3)COC2c2cc(OC)c(O)c(OC)c2)ccc1O (single isomer, unassigned; (+)) [Compound 14, (+)-9′-O-(E)-feruloyl-5′-methoxylariciresinol] | 10.5 | > 20 |  | > 20 |  | 
8 | COc1cc([C@@H]2c3c(cc(OC)c(O)c3OC)C=C(C(=O)NCCc3ccc(O)cc3)[C@H]2C(=O)NCCc2ccc(O)cc2)cc(OC)c1O [Compound 10, 1,2-dihydro-6,8-dimethoxy-7-hydroxy-1-(3,5-dimethoxy-4-hydroxyphenyl)-N^1,N^2-bis-[2-(4-hydroxypeenyl)ethyl]-2,3-naphthalene dicarboxamide] | > 20 | > 20 |  | > 20 |  | 
9 | COc1cc(CC2COC(c3cc(OC)c(O)c(OC)c3)C2CO)ccc1O (single isomer, unassigned; (+)) [Compound 16, (+)-5′-methoxylariciresinol] | > 20 | > 20 |  | > 20 |  | 
10 | COc1cc(C=CC(=O)OCC2C(C(=O)c3cc(OC)c(O)c(OC)c3)COC2c2cc(OC)c(O)c(OC)c2)ccc1O (single isomer, unassigned; (+)) [Compound 7] | 2.47 | > 20 |  | > 20 | 4-6 folds | 
11 | COc1cc(CC2COC(c3cc(OC)c(O)c(OC)c3)C2CO)cc(OC)c1O (single isomer, unassigned; (+)) [Compound 15, (+)-5,5′-dimethoxylariciresinol] | > 20 | > 20 |  | > 20 |  | 
12 | COc1cc(C=C2C(=O)OCC2Cc2ccc(OC)c(OC)c2)ccc1O (stereo not shown) [Compound 19, (7E,8R′)-didehydroarctigenin] | > 20 | 12.8 |  | 18.5 |  | 
13 | COc1cc(C[C@H]2C(=O)OC[C@@H]2Cc2ccc(OC)c(OC)c2)ccc1O [Compound 17, arctigenin] | > 20 | 0.28 |  | 3.25 |  | 
14 | COc1cc([C@@H]2c3c(cc(OC)c(O)c3OC)C=C(C(=O)NCCc3ccc(O)cc3)[C@H]2CO)cc(OC)c1O [Compound 1, (−)-(7′R,8′S)-N-[2-(4-hydroxyphenyl)-ethyl]-4,4′,9′-trihydroxy-3,5,3′,5′-tetramethoxy-2,7′-cyclolignan-7-en-9-amide] | > 20 | > 20 |  | > 20 |  | 
15 | COc1cc(C=CC(=O)OCC2C(Cc3cc(OC)c(O)c(OC)c3)COC2c2cc(OC)c(O)c(OC)c2)cc(OC)c1O (single isomer, unassigned; (+)) [Compound 8] | 11.2 | > 20 |  | > 20 |  | 
16 | COc1cc(/C=C/C(=O)OC[C@@H](Cc2ccc(O)c(OC)c2)[C@@H](COC(=O)/C=C/c2ccc(O)c(OC)c2)Cc2ccc(O)c(OC)c2)ccc1O [Compound 12, (+)-9,9′-O-di-(E)-feruloyl-secoisolariciresinol] | > 20 | > 20 | 66.5 | > 20 |  | 
17 | C[C@@H]1C[C@H]2[C@@H]3CCC4=CC(=O)C=C[C@]4(C)[C@@]3(F)[C@@H](O)C[C@]2(C)[C@@]1(O)C(=O)CO [Dexamethasone, reference compound] |  |  | 9.5 |  |  | 
18 | COc1cc(/C=C/C(=O)OC[C@@H](Cc2cc(OC)c(O)c(OC)c2)[C@@H](COC(=O)/C=C/c2ccc(O)c(OC)c2)Cc2cc(OC)c(O)c(OC)c2)ccc1O [Compound 11, (+)-9,9′-O-di-(E)-feruloyl-5,5′-dimethoxy secoisolariciresinol] | > 20 | > 20 | 47.5 | > 20 |  | 13.5
19 | COc1cc(CCNC(=O)C2=Cc3cc(OC)c(O)c(OC)c3[C@@H](c3cc(OC)c(O)c(OC)c3)[C@@H]2C(=O)NCCc2ccc(O)cc2)ccc1O [Compound 3, (−)-(7′R,8′S)-N^1-[2-(4-hydroxy-3-methoxyphenyl)-ethyl]-N^2-[2-(4-hydroxyphenyl)-ethyl]-4,4′-dihydroxy-3,5,3′,5′-tetramethoxy-2,7′-cyclolignan-7-en-9,9′-diamide] | > 20 | > 20 |  | > 20 |  | 
20 | CC(=O)O[C@H]1C(=O)[C@@]2(C)[C@H]([C@H](OC(=O)c3ccccc3)[C@]3(O)C[C@H](OC(=O)[C@H](O)[C@@H](NC(=O)c4ccccc4)c4ccccc4)C(C)=C1C3(C)C)[C@]1(OC(C)=O)CO[C@@H]1C[C@@H]2O [Taxol, reference compound] | 1.28 | 0.02 |  | 0.005 |  | 
